# Patent publication US20240400555A1 (Initial Therapeutics, Inc., priority 2023, published 2024)
# Tested on: MV-4-11 cells
# Experiment: Cell Viability Assay in MV-4-11 Cells
# Format: cell-based
# Conditions: Homo sapiens, MV4-11, 72 h, MV-4-11 cells, 72 h, Cell-Titer Glo; read-out: IC50
# How it was run: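 MV-4-11 cells at 7,000/well in IMDM with 10% FBS, exposed to compound for 72 h. Viability by CellTiter-Glo luminescence, normalized to DMSO as 100%, fitted with a four-parameter curve.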
row,IC50,Compound
1,0.13 µM,"Cc1nnc(-c2ccc(C(=O)N(c3nccc4scc(C)c34)[C@@H]3CCCNC3)c(F)c2)s1 [Example 781, (R)-2-fluoro-4-(5-methyl-1,3,4-thiadiazol-2-yl)-N-(3-methylthieno[3,2-c]pyridin-4-yl)-N-(piperidin-3-yl)benzamide]"
2,0.15 µM,"CCOc1cc(C)c2c(N(C(=O)c3ccc(-c4nnc(C)s4)cn3)[C@@H]3CCCNC3)nccc2c1 [Example 865, N-(6-ethoxy-8-methyl-1-isoquinolyl)-5-(5-methyl-1,3,4-thiadiazol-2-yl)-N-[(3R)-3-piperidyl]pyridine-2-carboxamide]"
3,0.19 µM,"Cc1cccc2ccnc(N(C(=O)c3ccc(Nc4nccc(N5CCCC[C@H]5C)n4)cc3F)[C@@H]3CCCNC3)c12 [Example 959, 2-fluoro-N-(8-methylisoquinolin-1-yl)-4-({4-[(2R)-2-methylpiperidin-1-yl]pyrimidin-2-yl}amino)-N-[(3R)-piperidin-3-yl]benzamide]"
4,0.048 µM,"COc1cc(C)c2c(N(C(=O)c3ccc(-c4nnc(C)s4)nc3)[C@@H]3CCCNC3)nccc2c1 [Example 901, N-(6-methoxy-8-methyl-1-isoquinolyl)-6-(5-methyl-1,3,4-thiadiazol-2-yl)-N-[(3R)-3-piperidyl]pyridine-3-carboxamide]"
5,1.9 µM,"COc1ccc(C)c2c(N(C(=O)c3ccc(-c4nnc(C)s4)cn3)[C@@H]3CCCNC3)nccc12 [Example 870, N-(5-methoxy-8-methyl-1-isoquinolyl)-5-(5-methyl-1,3,4-thiadiazol-2-yl)-N-[(3R)-3-piperidyl]pyridine-2-carboxamide]"
6,0.05 µM,"Cc1cccc2ccnc(N(C(=O)c3ccc(Nc4nccc(N5CCOCC5=O)n4)cc3F)[C@@H]3CCCNC3)c12 [Example 937, (R)-2-fluoro-N-(8-methylisoquinolin-1-yl)-4-(4-(3-oxomorpholino)pyrimidin-2-ylamino)-N-(piperidin-3-yl)benzamide]"
7,4.4 µM,"NC(=O)c1ccc(-c2cc3c(N(C(=O)c4ccc(-n5cnc6ccccc65)cc4F)[C@@H]4CCCNC4)nccc3s2)cc1 [Example 826, 4-(benzimidazol-1-yl)-N-[2-(4-carbamoylphenyl)thieno[3,2-c]pyridin-4-yl]-2-fluoro-N-[(3R)-3-piperidyl]benzamide]"
8,0.383 µM,"COc1ccc(C)c2c(N(C(=O)c3ccc(-c4nnc(C)s4)nc3)[C@@H]3CCCNC3)nccc12 [Example 902, N-(5-methoxy-8-methyl-1-isoquinolyl)-6-(5-methyl-1,3,4-thiadiazol-2-yl)-N-[(3R)-3-piperidyl] pyridine-3-carboxamide]"
9,0.034 µM,"CCc1nnc(-c2ccc(C(=O)N(c3nccc4cccc(C)c34)[C@@H]3CCCNC3)c(F)c2)s1 [Example 837, (R)-4-(5-ethyl-1,3,4-thiadiazol-2-yl)-2-fluoro-N-(8-methylisoquinolin-1-yl)-N-(piperidin-3-yl)benzamide]"
10,0.18 µM,"Cc1cccc2ccnc(N(C(=O)c3ccc(-c4nnc(CCC#N)s4)cc3)[C@@H]3CCCNC3)c12 [Example 880, 4-[5-(2-cyanoethyl)-1,3,4-thiadiazol-2-yl]-N-(8-methyl-1-isoquinolyl)-N-[(3R)-3-piperidyl]benzamide]"
11,0.213 µM,"Cc1cccc2ccnc(N(C(=O)c3ccc(Nc4nccc(CN5CCC(F)(F)CC5)n4)cc3)[C@@H]3CCCNC3)c12 [Example 972, (R)-4-((4-((4,4-difluoropiperidin-1-yl)methyl)pyrimidin-2-yl)amino)-N-(8-methylisoquinolin-1-yl)-N-(piperidin-3-yl)benzamide]"
12,0.051 µM,"Cc1cccc2ccnc(N(C(=O)c3ccc(Nc4nccc(NCC#N)n4)cc3F)[C@@H]3CCCNC3)c12 [Example 950, (R)-4-((4-((cyanomethyl)amino)pyrimidin-2-yl)amino)-2-fluoro-N-(8-methylisoquinolin-1-yl)-N-(piperidin-3-yl)benzamide]"

# The remaining lines, values behind:
row,Compound,IC50
1,"COc1ccc(-c2cc3c(N(C(=O)c4ccc(-n5nnc6cccnc65)cc4F)[C@@H]4CCCNC4)nccc3s2)cc1 [Example 378, 2-fluoro-N-[2-(4-methoxyphenyl)thieno[3,2-c]pyridin-4-yl]-N-[(3R)-3-piperidyl]-4-(triazolo[4,5-b]pyridin-3-yl)benzamide]",0.19 µM
2,"CC(=O)Nc1ccc(-c2cc3c(N(C(=O)c4ccc(-c5cn(C)nn5)cc4F)[C@@H]4CCCNC4)nccc3s2)cc1 [Example 547, (R)—N-(2-(4-acetamidophenyl)thieno[3,2-c]pyridin-4-yl)-2-fluoro-4-(1-methyl-1H-1,2,3-triazol-4-yl)-N-(piperidin-3-yl)benzamide]",0.48 µM
3,"Cc1nnc(-c2ccc(C(=O)N(c3nccc4cc(Cl)cc(C)c34)[C@@H]3CCCNC3)cc2C)s1 [Example 707, (R)—N-(6-chloro-8-methylisoquinolin-1-yl)-3-methyl-4-(5-methyl-1,3,4-thiadiazol-2-yl)-N-(piperidin-3-yl)benzamide]",0.47 µM
4,"CCc1nnc(-c2ccc(C(=O)N(c3nccc4cc(F)cc(C)c34)[C@@H]3CCCNC3)nc2)s1 [Example 672, (R)-5-(5-ethyl-1,3,4-thiadiazol-2-yl)-N-(6-fluoro-8-methylisoquinolin-1-yl)-N-(piperidin-3-yl)picolinamide]",0.18 µM
5,"Cc1cccc2ccnc(N(C(=O)c3ccc(Nc4nccc(-c5ccccc5)n4)cc3F)[C@@H]3CCCNC3)c12 [Example 559, (R)-2-fluoro-N-(8-methylisoquinolin-1-yl)-4-((4-phenylpyrimidin-2-yl)amino)-N-(piperidin-3-yl)benzamide]",0.034 µM
6,"Cc1cccc2ccnc(N(C(=O)c3ccc(Nc4nccc(NCc5cccnc5)n4)cc3F)[C@@H]3CCCNC3)c12 [Example 696, (R)-2-fluoro-N-(8-methylisoquinolin-1-yl)-N-(piperidin-3-yl)-4-((4-((pyridin-3-ylmethyl)amino)pyrimidin-2-yl)amino)benzamide]",0.2 µM
7,"CC(C)NC(=O)c1cccc(-c2cc3c(N(C(=O)c4ccc(-c5cn(C)nn5)cc4F)[C@@H]4CCCNC4)nccc3s2)c1 [Example 539, 2-fluoro-N-[2-[3-(isopropylcarbamoyl)phenyl]thieno[3,2-c]pyridin-4-yl]-4-(1-methyltriazol-4-yl)-N-[(3R)-3-piperidyl]benzamide]",0.63 µM
8,"Cc1cc(C)c2c(N(C(=O)c3ccc(-c4nnc(C)s4)cc3F)[C@@H]3CCCNC3)nccc2c1 [Example 641, (R)—N-(6,8-dimethylisoquinolin-1-yl)-2-fluoro-4-(5-methyl-1,3,4-thiadiazol-2-yl)-N-(piperidin-3-yl)benzamide]",0.056 µM
9,"Cc1cccc2ccnc(N(C(=O)c3ccc(Nc4nccc(-c5ccc(N)nc5)n4)cc3F)[C@@H]3CCCNC3)c12 [Example 720, (R)-4-((4-(6-aminopyridin-3-yl)pyrimidin-2-yl)amino)-2-fluoro-N-(8-methylisoquinolin-1-yl)-N-(piperidin-3-yl)benzamide]",0.055 µM
10,Cn1cc(-c2ccc(C(=O)N(c3nccc4sc(-c5ccc6c(c5)NC(=O)C6)cc34)[C@@H]3CCCNC3)c(F)c2)nn1 [Example 544],1.8 µM

# Same assay, conditions: MV-4-11 cells, 72 h, Cell-Titer Glo; read-out: IC50
row,IC50,Compound
1,0.17 µM,"Cc1csc2ccnc(N(C(=O)c3ccc(Nc4ncccn4)cc3F)[C@@H]3CCCNC3)c12 [Example 931, (R)-2-fluoro-N-(3-methylthieno[3,2-c]pyridin-4-yl)-N-(piperidin-3-yl)-4-(pyrimidin-2-ylamino)benzamide]"
